{"source": "patent US20050100510A1", "about": "“Methods for using gadolinium as a contrast media” (priority 2003, published 2005)", "key": {"[1]": {"experiment": "Third set of cases: spinal interventional procedures with fluoroscopic guidance, adverse reactions", "format": "in vivo, human", "description": "In a third set of cases, two-hundred-and-thirty patients underwent spinal interventional procedures with fluoroscopic guidance. Two-hundred-and-eleven patients were subsequently evaluated for any adverse reaction in the period immediately after the procedure and up to several weeks after the procedure. Seventy-four of the patients were male and one-hundred-and-thirty-seven were female. The age range of the patient population varied from sixteen years old to eighty-one year old, and the average age of the patient population was 48.7 years old. The only prophylactic medications that were administered before the procedure were antibiotics for patients undergoing discography, patients with significant cardiac disease, or patients with surgical implants. The number and type of procedures along with the number of adverse reactions for each procedure type are summarized in below in Table 1: […]"}, "[2]": {"experiment": "Second set of test cases: fluoroscopically guided spinal injections with gadolinium", "format": "in vivo, human", "procedure": "During the second of set of tests, gadolinium was injected into a variety of target portions of the spinal area to create a contrast between the target portion and surrounding tissue. As described below, these contrasts were adequately sensed using fluoroscopy to create visual representations of the contrast between the target portion and the surrounding tissue. The second set of tests utilized a preferred embodiment of the method of using gadolinium as a contrast substance, where a visualization was created to use as a guide for the accurate injection of a diagnostic or therapeutic substance into the target portion of the spinal area. In this respect, visualization of the contrast helps to localize placement of a needle for an injection of a substance avoiding the harm that the injection might cause to surrounding tissue.\nThe second set of tests comprised chart review, performance of spinal injections with gadolinium under fluoroscopic guidance, and post procedure follow-up by phone at two and twelve weeks to assess any adverse reactions to the gadolinium. […] The tests utilized a contrast substance that was 469.01 mg/ml gadolinium (Magnevist—from Berlex Laboratories, Wayne, N.J.). […]"}, "[3]": {"experiment": "First set of test cases: gadolinium lumbar discography with fluoroscopy and CT", "format": "in vivo, human", "conditions": "for visibility of contrast on computer axial tomography: approximately one-hundred-and-sixty minutes after injection, case 1-1", "procedure": "A first set of test cases was conducted wherein it was identified that gadolinium would adequately opacify, thereby allowing adequate fluoroscopic imaging for of soft tissue portions of the spinal area and, for example, for lumbar discography procedures. […] During the first set of test cases, a solution of 469.01 mg/ml gadolinium (Magnevist—Berlex Laboratories, Wayne, N.J.) with 25 mg/ml Cefazolin (Apothecon, Princeton, N.J.) for antibacterial prophylaxis was injected into each disc using a standard three milliliter syringe. The following is a brief synopsis of six tests from the first set of tests:\nThe volume of contrast injected at pain onset, the end point (nucleography), the pain intensity measured with the numerical analog scale, and the concordant and/or discordant pain response were recorded for each spinal disc to be injected with gadolinium. Each spinal disc then was visualized with c-arm fluoroscopy to create a visualization of the nucleogram and provocation of the spinal discs."}, "[4]": {"conditions": "intravenous administration; cited from earlier work"}, "[5]": {"conditions": "cited from earlier work"}, "[6]": {"conditions": "repeated exposure in sensitive individuals"}}, "note": "“Also recorded” adds a separate entry of the source. Read-outs that look alike come from different tables or passages of the source."}
{"smiles": "CNC[C@H](O)[C@@H](O)[C@H](O)[C@H](O)CO.CNC[C@H](O)[C@@H](O)[C@H](O)[C@H](O)CO.O=C([O-])CN(CCN(CC(=O)[O-])CC(=O)O)CCN(CC(=O)[O-])CC(=O)O.[Gd+3]", "note": "[gadolinium, gadopentate dimeglumine]", "values": [{"measurement": "Number of Adverse Reactions", "setting": "[1]; Caudal epidural, 16 procedures", "value": 0}, {"measurement": "Number of Adverse Reactions", "setting": "[1]; Cervical SNRB, 14 procedures", "value": 1}, {"measurement": "Number of Adverse Reactions", "setting": "[1]; Cervical interlaminar, 6 procedures", "value": 1}, {"measurement": "Number of Adverse Reactions", "setting": "[1]; Lumbar SNRB, 55 procedures", "value": 4}, {"measurement": "Number of Adverse Reactions", "setting": "[1]; Lumbar discography, 11 procedures", "value": 0}, {"measurement": "Number of Adverse Reactions", "setting": "[1]; Lumbar epidurolysis, 4 procedures", "value": 0}, {"measurement": "Number of Adverse Reactions", "setting": "[1]; Lumbar interlaminar, 37 procedures", "value": 1}, {"measurement": "Number of Adverse Reactions", "setting": "[1]; Lumbar intraarticular facet, 3 procedures", "value": 0}, {"measurement": "Number of Adverse Reactions", "setting": "[1]; Lumbar sympathetic, 4 procedures", "value": 0}, {"measurement": "Number of Adverse Reactions", "setting": "[1]; Other miscellaneous, 13 procedures", "value": 1}, {"measurement": "Number of Adverse Reactions", "setting": "[1]; Sacroiliac joint, 59 procedures", "value": 2}, {"measurement": "quality of visualizations from gadolinium-induced contrasts", "setting": "[1]; all procedures, fluoroscopic devices", "value": "adequate visualizations"}, {"measurement": "serious adverse reactions", "setting": "[1]; of the five allergic-type reactions, likely due to contributing factors", "value": "one"}, {"measurement": "adverse reactions attributable to allergic-type reactions", "setting": "[1]; out of the ten adverse reactions", "value": "five"}, {"measurement": "side effects, complications or adverse reactions", "setting": "[2]; 469.01 mg/ml gadolinium (Magnevist), follow-up at two and twelve weeks", "value": "no side effects or complications; also recorded: None of the individuals in the case series of the present invention had any adverse reactions"}, {"measurement": "visibility under fluoroscopy", "setting": "[2]; soft tissue of the spinal area", "value": "visible under fluoroscopy"}, {"measurement": "visibility in disc material on fluoroscopic image", "setting": "[3]; after injection into spinal discs", "value": "fluoroscopically visible; also recorded: clearly visible"}, {"measurement": "visibility of contrast on computer axial tomography", "setting": "[3]; L3-L4 spinal disc", "value": "visible"}, {"measurement": "visibility of contrast on computer axial tomography", "setting": "[3]; L4-L5 disrupted spinal disc", "value": "less intensive, but still visible"}, {"measurement": "complications during or after the procedure", "setting": "[3]; intradiscal, 469.01 mg/ml gadolinium with 25 mg/ml Cefazolin, single patient cases", "value": "No complications"}, {"measurement": "visibility on CT scan", "setting": "[3]; more than one-hundred-and-twenty minutes after injection, discs with and without annular disruption", "value": "still visible"}, {"measurement": "visibility on computer axial tomography", "setting": "[3]; thirty minutes after completion of the procedure, case 1-2", "value": "showed gadolinium in each disc"}, {"measurement": "adverse reaction rate", "setting": "[4]", "value": 0.06, "unit": "%"}]}
{"smiles": "CC(=O)N(CC(O)CO)c1c(I)c(C(=O)NCC(O)CO)c(I)c(C(=O)NCC(O)CO)c1I", "note": "(stereo not drawn) [iohexol]", "values": [{"measurement": "anaphylaxis occurrence", "setting": "[5]; first dose administrations", "value": "one percent and two percent"}, {"measurement": "anaphylaxis occurrence", "setting": "[5]; [6]", "value": "seventeen percent and thirty-five percent"}]}
{"smiles": "C[C@H](O)C(=O)Nc1c(I)c(C(=O)NC(CO)CO)c(I)c(C(=O)NC(CO)CO)c1I", "note": "[iopamidol]", "values": [{"measurement": "anaphylaxis occurrence", "setting": "[5]; first dose administrations", "value": "one percent and two percent"}, {"measurement": "anaphylaxis occurrence", "setting": "[5]; [6]", "value": "seventeen percent and thirty-five percent"}]}
